Assay results taken from paper PMC4493460, “Increasing the Biological Stability Profile of a New Chemical Entity, UPEI-104, and Potential Use as a Neuroprotectant Against Reperfusion-Injury” (Brain Sciences, 2015).
Entries after “also recorded” stand apart in the source; their conditions may differ. Read-outs that look alike come from different tables or passages of the source. Values belong to the compound of their own block, whether it stands above or below them.

Key:
[1] = parameters: method as in PMID 21172313; conditions: cited from earlier work
[2] = Stability in human plasma (Cerep, HPLC-MS/MS); type: in vitro ADME; conditions: 1.0E−06 M, 37 °C; for half-life at 1 µM: human, plasma, 0-120 min
Experimental: The detection method was HPLC-MS/MS. At the end of incubation at each of the time points, acetonitrile was added to the incubation mixture followed by centrifugation. Samples were analyzed by HPLC-MS/MS and peak areas were recorded for each analyte. The area of precursor compound remaining after each of the time points relative to the amount remaining at time zero, expressed as percent, was calculated. […] Further experimental detail may be found in [30].
Further experimental detail may be found in [32].

in vitro = conditions: for microsomal CLint at 100 nM / % Compound Remaining, 1st / % Compound Remaining, 2nd / % Compound Remaining, Mean / half-life at 100 nM: human, microsomes; for % Compound Remaining, 1st / % Compound Remaining, 2nd / % Compound Remaining, Mean: 100 nM
Experimental: Briefly, incubation was performed at 37 °C for times between 0 and 60 min as indicated. The detection method was HPLC-MS/MS. Intrinsic clearance from microsomes (S9, cryopreserved hepatocytes, recombinant CYP, recombinant UGT) was assayed. Metabolic stability, expressed as percent of the parent compound remaining, was calculated by comparing the peak area of the compound at the time point relative to that at time 0. The half-life (T1/2) was estimated from the slope of the initial linear range of the logarithmic curve of compound remaining (%) vs. time, assuming the first-order kinetics.
A solution of each test compound (1000 ng/mL or 10 μM) was prepared as described above and infused into the TSQ Quantum source via syringe pump at a constant rate. Full scan MS analysis was conducted and total ion current chromatograms and corresponding mass spectra were generated for each test compound in both positive and negative ionization modes. The precursor ions for MS/MS were selected from either the positive or the negative mass spectrum, as a function of the respective ion abundance. In addition, product ion MS/MS analysis was performed in order to determine the appropriate selected fragmentation reaction for use in quantitative analysis. The final reaction monitoring parameters were chosen to maximize the ability to quantify the test compound when present within a complex mixture of components. Following identification of the specific SRM transition to be used for each test compound, the detection parameters were optimized using the automated protocol in the TSQ Quantum Compound Optimization Workspace software package (Thermo Scientific, MA, USA). Finally, the chromatographic conditions to be used for LC-MS analysis were identified by injection and separation of the analyte on a suitable LC column and adjustment of the gradient conditions as necessary. Further experimental detail may be found in [32].
Mobile Phase B: 6 mM ammonium formate/3 mM formic acid in water/acetonitryl (ACN; 1/9, v/v). Column: Hypersil GOLD DASH HTS, 2.1 × 20 mm, 3 micron (Thermo Scientific, MA, USA; see Table 1 for details).

[3] = test system: infarct volume following tMCAO; parameters: method as in PMID 22277933; conditions: cited from earlier work
[4] = parameters: method as in PMID 22277933; conditions: animals injected i.v.; immediately, as early as 1 min after injection; previous work; cited from earlier work
NADPH oxidase = test system: NADPH oxidase; parameters: method as in PMID 22277933, PMID 18511205; conditions: compared with apocynin alone; cited from earlier work
[5] = test system: infarct volume following tMCAO; assay: Transient middle cerebral artery occlusion (tMCAO) ischemia-reperfusion injury, infarct volume by TTC staining; type: in vivo, Sprague-Dawley rats; conditions: rats, 30 min occlusion, 5.5 h reperfusion
Experimental: All surgical procedures described below were approved by the University of Prince Edward Island Animal Care Committee and were in compliance with the requirements of the Canadian Council on Animal Care. Our surgical protocol has been described previously. Briefly, rats were anaesthetized with sodium thiobutabarbital (Inactin, Sigma Aldrich, St. Louis, MO, USA; 100 mg/kg, intraperitoneal; i.p.) and kept warm on a heating pad maintained at 37 ± 1 °C. A venous cannula was inserted into the right femoral vein to allow for all drug injections and supplemental anaesthesia, if required. Rats were then transferred to a stereotaxic frame to allow for surgical access to the right middle cerebral artery (MCA). As detailed in our previous publication, we used a 3-point occlusion of the MCA by inserting suture under the vessel and applying pressure, by gently lifting the sutures, to occlude flow by 100% (as confirmed by laser Doppler flowmetry). The period of occlusion lasted for 30 min, followed by a 5.5 h period of reperfusion, which was accomplished by removal of these sutures (transient ischemia model, tMCAO). […] Sections were then scanned (both sides) the next day, and infarct area was measured using imaging software (Image J; Scion Corporation, Frederick, MD, USA). […] Data was analyzed by an investigator blinded to the treatment groups. […]

infarct volume, MCAO = test system: infarct volume, MCAO; parameters: method as in PMID 1299626, PMID 19417757, PMID 21946070, PMID 19175604, PMID 17697529; conditions: cited from earlier work
global ischemia = test system: global ischemia; parameters: method as in PMID 16650838; conditions: gerbils, given 5 min following 5 min of global ischemia, assessed four days later; cited from earlier work

SMILES: O=C(O)CCCCC1CCSS1 (stereo not drawn) [LA, α-Lipoic acid]
Neuroprotection ([1]; 5 mg/kg (most effective dose), administered just prior to the beginning of reperfusion): did not result in significant neuroprotection | Neuroprotection ([1]; 5 mg/kg, administered prior to both occlusion and reperfusion): produced neuroprotection

half-life at 1 µM ([2]; read-out: Half-Life, 1st): 7.2 min | half-life at 1 µM ([2]; read-out: Half-Life, 2nd): 7.2 min | half-life at 1 µM ([2]; read-out: Half-Life, Mean): 7 min
SMILES: CC(C)[N+](C)(CCOC(=O)C1c2ccccc2Oc2ccccc21)C(C)C [Propantheline, reference compound]

half-life at 1 µM ([2]; read-out: Half-Life, 1st): < 30 min | half-life at 1 µM ([2]; read-out: Half-Life, 2nd): < 30 min | half-life at 1 µM ([2]; read-out: Half-Life, Mean): < 30 min
SMILES: CCCOc1cc(N)ccc1C(=O)OCCN(CC)CC [Propoxycaine, reference compound]

% Compound Remaining, 1st ([2]; incubation 0 min): 100.0% | % Compound Remaining, 2nd ([2]; incubation 0 min): 100.0% | % Compound Remaining, Mean ([2]; incubation 0 min): 100% | % Compound Remaining, 1st ([2]; incubation 30 min): 92.7% | % Compound Remaining, 2nd ([2]; incubation 30 min): 126.6% | % Compound Remaining, Mean ([2]; incubation 30 min): 110% | % Compound Remaining, 1st ([2]; incubation 60 min): 100.7% | % Compound Remaining, 2nd ([2]; incubation 60 min): 116.0% | % Compound Remaining, Mean ([2]; incubation 60 min): 108% | % Compound Remaining, 1st ([2]; incubation 90 min): 99.5% | % Compound Remaining, 2nd ([2]; incubation 90 min): 111.2% | % Compound Remaining, Mean ([2]; incubation 90 min): 105% | % Compound Remaining, 1st ([2]; incubation 120 min): 109.9% | % Compound Remaining, 2nd ([2]; incubation 120 min): 140.1% | % Compound Remaining, Mean ([2]; incubation 120 min): 125% | half-life at 1 µM ([2]; read-out: Half-Life, 1st): > 120 min | half-life at 1 µM ([2]; read-out: Half-Life, 2nd): > 120 min | half-life at 1 µM ([2]; read-out: Half-Life, Mean): > 120 min | microsomal CLint at 100 nM (in vitro): 6030 µL/min/mg | % Compound Remaining, 1st (in vitro; 0 h): 100.0% | % Compound Remaining, 2nd (in vitro; 0 h): 100.0% | % Compound Remaining, Mean (in vitro; 0 h): 100% | % Compound Remaining, 1st (in vitro; 0.25 h): 0.0% | % Compound Remaining, 2nd (in vitro; 0.25 h): 0.0% | % Compound Remaining, Mean (in vitro; 0.25 h): 0% | % Compound Remaining, 1st (in vitro; 0.5 h): 0.0% | % Compound Remaining, 2nd (in vitro; 0.5 h): 0.0% | % Compound Remaining, Mean (in vitro; 0.5 h): 0% | % Compound Remaining, 1st (in vitro; 0.75 h): 0.0% | % Compound Remaining, 2nd (in vitro; 0.75 h): 0.0% | % Compound Remaining, Mean (in vitro; 0.75 h): 0% | % Compound Remaining, 1st (in vitro; 1 h): 0.0% | % Compound Remaining, 2nd (in vitro; 1 h): 0.0% | % Compound Remaining, Mean (in vitro; 1 h): 0% | half-life at 100 nM (in vitro; 1st): 1.1 min | half-life at 100 nM (in vitro; 2nd): < 15 min | half-life at 100 nM (in vitro; Mean): ~1 min
SMILES: COc1cc(C(C)=O)ccc1OC(=O)CCCCC1CCSS1 (centres unmarked) [UPEI-100]
Flags (detection of test compound in the assay matrix) (in vitro): not detected in the assay at any time point | Dose at which infarct volume was reduced ([3]; same in vivo model of reperfusion-injury, previously observed): 0.1 mg/kg | Dose for equivalent neuroprotection compared to each parent compound (lipoic acid, apocynin), fold lower ([3]; tMCAO, previous work): 100 fold | Detection in tissue samples / central nervous system following intravenous injection [4]: undetectable; also recorded: unable to detect; also recorded: could not be detected | Inhibition of NADPH oxidase (NADPH oxidase): inhibited NADPH oxidase

% Compound Remaining, 1st ([2]; incubation 0 min): 100.0% | % Compound Remaining, 2nd ([2]; incubation 0 min): 100.0% | % Compound Remaining, Mean ([2]; incubation 0 min): 100% | % Compound Remaining, 1st ([2]; incubation 30 min): 89.3% | % Compound Remaining, 2nd ([2]; incubation 30 min): 112.0% | % Compound Remaining, Mean ([2]; incubation 30 min): 101% | % Compound Remaining, 1st ([2]; incubation 60 min): 95.5% | % Compound Remaining, 2nd ([2]; incubation 60 min): 98.6% | % Compound Remaining, Mean ([2]; incubation 60 min): 97% | % Compound Remaining, 1st ([2]; incubation 90 min): 82.9% | % Compound Remaining, 2nd ([2]; incubation 90 min): 76.4% | % Compound Remaining, Mean ([2]; incubation 90 min): 80% | % Compound Remaining, 1st ([2]; incubation 120 min): 77.2% | % Compound Remaining, 2nd ([2]; incubation 120 min): 90.1% | % Compound Remaining, Mean ([2]; incubation 120 min): 84% | half-life at 1 µM ([2]; read-out: Half-Life, 1st): 352 min | half-life at 1 µM ([2]; read-out: Half-Life, 2nd): 351 min | half-life at 1 µM ([2]; read-out: Half-Life, Mean): > 120 min | microsomal CLint at 100 nM (in vitro): 963 µL/min/mg | half-life at 100 nM (in vitro; 1st): 7.3 min | half-life at 100 nM (in vitro; 2nd): 7.1 min | half-life at 100 nM (in vitro; Mean): ~7 min
SMILES: COc1cc(C(C)=O)ccc1OCCCCCC1CCSS1 (centres unmarked) [UPEI-104]
Infarct volume vs vehicle group ([5]; 0.1 mg/kg i.v. 30 min prior to MCA occlusion, p < 0.05): significantly lower | Effect on infarct volume as a function of dose ([5]; 0.001–0.1 mg/kg i.v. 30 min prior to MCA occlusion): dose-dependent reduction in infarct volume

SMILES: COc1cc(C(C)=O)ccc1O [apocynin, 4-hydroxy-3-methoxyacetophenone]
Infarct volume (infarct volume, MCAO; administered during occlusion of the middle cerebral artery): attenuation of infarct volume | Infarct volume benefit (infarct volume, MCAO; administration delayed following the onset of reperfusion): benefits were lost | Neuronal degeneration, neuronal death and microglial activation (global ischemia): decreased neuronal degeneration and delayed neuronal death and microglial activation
